In US20250248398A1, “TICK REPELLENT” (priority 2024, published 2025):

Tests used:
[1] = test system: American dog ticks, Dermacentor variabilis; assay: two-choice still-air olfactometer (3D-printed), 30 minutes; type: in vivo; settings: female D. variabilis, 1 ng in 25 μL methanol
Procedure: (§1) All behavioral responses of ticks to experimental substrates were tested in two-choice still-air olfactometers (150 mm×50 mm×17 mm; FIGS. 1a, 1b, 1c). Still-air, instead of moving-air, olfactometers were used because off-host ticks encounter fungi in soil microhabitats such as leaf litter where there is typically little, if any, air movement. Each olfactometer had three inset circular chambers (with an inner diameter of 28 mm) interconnected with inset linear paths (24 mm×10 mm×7 mm).
(§2) Olfactometers were modeled and 3D-printed using Autodesk Fusion 360 (Version 13.2.0.9150), Creality Slicer (Version 4.8.2), and an Ender-3 Pro 3D printer (Creality, Shengzhen, China). Olfactometers were printed using translucent 1.75 mm (±0.03 mm dimensional accuracy) polylactic acid (PLA) filament ([…], OH, U.S.A.). To reduce the porosity of 3D-printed olfactometers, XTC-3D brush-on epoxy coating was applied (Smooth-On Inc., PA, U.S.A.).
(§3) Treatment and control test stimuli were assigned to lateral chambers, alternating the position of stimuli between replicates to account for potential side bias. To initiate an experimental replicate, a single tick was introduced into the central chamber, briefly exposed to human exhale to stimulate movement, and then allowed 30 minutes to respond. […]

[2] = test system: lone star ticks, Amblyomma americanum; assay: as above; type: in vivo; settings: female A. americanum, 1 ng in 25 μL methanol
Procedure: as §1, §2, §3

Ixodes scapularis = assay: two-choice still-air olfactometer (3D-printed), 30 minutes, synthetic fungal metabolites; type: in vivo; settings: female I. scapularis
Procedure: All behavioral responses of ticks to experimental substrates were tested in two-choice still-air olfactometers (150 mm×50 mm×17 mm; FIGS. 1a, 1b, 1c). […] Each olfactometer had three inset circular chambers (with an inner diameter of 28 mm) interconnected with inset linear paths (24 mm×10 mm×7 mm).
Treatment and control test stimuli were assigned to lateral chambers, alternating the position of stimuli between replicates to account for potential side bias. To initiate an experimental replicate, a single tick was introduced into the central chamber, briefly exposed to human exhale to stimulate movement, and then allowed 30 minutes to respond. […] Olfactometers were sealed with parafilm and a rectangular lid (150 mm×50 mm×3 mm).
A tick was considered a responder if it was found in a lateral chamber after 30 minutes. After each experiment, olfactometers were cleaned with 70% ethanol and hexane. At the end of each experimental day, olfactometers were washed with Sparkleen (Thermo Fisher Scientific, MA, U.S.A), rinsed with distilled water, and air-dried.
Similarly, geosmin dissolved in 25 μL of methanol was applied at doses of 1.0 ng (Exp. 4), 0.1 ng (Exp. 5), and 0.01 ng (Exp. 6), using 25 μL of methanol as the control stimulus. In each experimental replicate, methanol was allowed 5 minutes to evaporate before a tick was introduced into the central olfactometer chamber.
In each experiment, a watch glass (28 mm diameter) fitted with a congruent piece of filter paper was placed in lateral olfactometer chambers, as shown in FIG. 1. In experiment 7, 1 ng of 2-MIB was dissolved in 25 μL of methanol and applied to the treatment filter paper, and 25 μL of methanol was applied to the corresponding control filter paper. In experiment 8, 1 ng of L-borneol and 1 ng of D-borneol were each dissolved in 25 μL of methanol and applied to the treatment filter paper, and 50 μL of methanol was applied to the control filter paper. In each experimental replicate, methanol was allowed 5 minutes to evaporate before a tick was introduced into the central olfactometer chamber.
In each experimental replicate, methanol was allowed 5 minutes to evaporate before a tick was introduced into the central olfactometer chamber.

I. scapularis tick = assay: two-choice still-air Pyrex glass olfactometer, 20 hours, natural and synthetic ant metabolites; parameters: species or system Ixodes scapularis; settings: in vivo
Procedure: Treatment and control stimuli were assigned to the two lateral chambers, alternating the position of stimuli between replicates to account for potential side bias. Both lateral chambers were also fitted with a wet cotton ball (Thermo Fisher Scientific, MA, U.S.A.) to ensure sufficiently high humidity.
To initiate an experimental replicate, a single I. scapularis tick was introduced into the central chamber, briefly exposed to human exhale to stimulate movement, and then allowed 20 hours to respond. A tick was considered a responder if it was found in a lateral chamber or in a connecting glass tube closer to a lateral chamber than the central chamber, as shown in FIG. 2. To prevent tick escape, all three chambers of the olfactometer were sealed with Parafilm (Bemis, WI, U.S.A.) for the duration (i.e., 20 hours) of the experiment.
To minimize the potential for tick escape, and to prevent ticks from sensing cues (e.g., convective heat, infrared radiation, CO2) originating from experimentalists that initiated or scored experiments, olfactometers (n=10-15) were housed in a plexiglass box (112 cm×24 cm×14 cm). Experiments were run under a 14:10 light/dark cycle, thus enabling ticks to respond to test stimuli while maintaining a circadian rhythm. […]

[3] = dose 1 ng in 25 μL methanol on filter paper

Compound | deterrence of ticks (treatment vs methanol control) [1] | deterrence of ticks (treatment vs methanol control) [2] | deterrence of ticks (treatment vs methanol control) (Ixodes scapularis; dose 0.01 ng in 25 μL methanol) | deterrence of ticks (treatment vs methanol control) (Ixodes scapularis; dose 0.1 ng in 25 μL methanol) | deterrence of ticks (treatment vs methanol control) (Ixodes scapularis; [3]) | deterrence of ticks (treatment vs DCM control) (I. scapularis tick)
CC1(C)[C@@H]2CC[C@@]1(C)[C@](C)(O)C2 [2-MIB, 2-methylisoborneol] | deterred | deterred | not deterred | moderately deterred | strongly deterred | –
O=CO [formic acid] | – | – | – | – | – | deterred neither
CC1CCCC2(C)CCCCC12O (stereo not drawn) [geosmin, reference compound] | – | – | not deterred | not deterred | not deterred | –
